Test results as given in publication PMC11490426, “Structure-activity relationship of amino acid analogs to probe the binding pocket of sodium-coupled neutral amino acid transporter SNAT2” (Amino Acids, 2024).
Structures can show the parent of a compound that is named as a salt.

What was measured:
SNAT2 [1] = biological target: T1, SNAT2 (Homo sapiens, UniProt Q96QD8); assay: Inhibition of SNAT2-mediated 3H-glycine uptake in hyperosmotically treated PC-3 cells; format: cell-based
T1 construct: hyperosmotically treated PC-3 cells, known to upregulate SNAT2; endogenous in cells; host or cells: PC-3 prostate cells exposed to hyperosmotic medium for 24 h
T1 sequence (Q96QD8 1-506): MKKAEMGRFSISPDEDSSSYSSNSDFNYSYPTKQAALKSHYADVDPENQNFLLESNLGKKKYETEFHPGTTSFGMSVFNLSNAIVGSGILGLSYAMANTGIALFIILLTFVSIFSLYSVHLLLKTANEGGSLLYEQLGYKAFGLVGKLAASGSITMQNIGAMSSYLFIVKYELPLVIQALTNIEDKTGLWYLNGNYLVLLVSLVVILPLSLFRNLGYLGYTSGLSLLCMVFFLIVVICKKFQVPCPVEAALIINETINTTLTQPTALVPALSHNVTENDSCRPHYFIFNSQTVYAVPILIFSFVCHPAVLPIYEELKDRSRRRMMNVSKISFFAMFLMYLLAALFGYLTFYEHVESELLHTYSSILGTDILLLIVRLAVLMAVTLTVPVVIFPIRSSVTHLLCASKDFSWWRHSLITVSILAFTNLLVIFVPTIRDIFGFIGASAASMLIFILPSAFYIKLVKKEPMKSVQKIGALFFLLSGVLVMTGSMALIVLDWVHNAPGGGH
Protocol: Where Y is the % uptake, X is the concentration of the inhibitor, Top and Bottom are the top and bottom plateau respectively, and IC50 is the half maximal inhibitory concentration. These studies were performed in at least 3 independent cell passages (n = 3) and a curve was defined for each independent passage. However, for each compound, the top and bottom were constrained to be the same amongst the different cell passages.

PC-3 cells = assay: CellTiter-Glo viability assay; format: cell-based, human; details: 20 mM, after 10 min of exposure, hyperosmotically treated PC-3 cells
Protocol: ^3H-glycine uptake in hyperosmotically treated PC-3 cells was performed as previously described (Jakobsen et al. [2023]). 5-minute uptake of 0.5 µCi ⋅ mL^− 1 3H-glycine (11.1 nM) was used, and each uptake was normalized to the uptake obtained in a control situation (31.2 ± 5.7 fmol ⋅ cm^− 2 ⋅ min^− 1) without subtracting the background uptake (2.62 ± 0.67 fmol ⋅ cm^− 2 ⋅ min^− 1). Compounds that inhibited uptake by more than 20% at the highest tested concentrations were tested in the CellTiter-Glo viability assay (Promega, Madison, WI, USA), to rule out that the observed inhibition was not caused by reduced cell viability (Fig. S1 in Supplementary Information SI).
Fig. S1 Cell viability of hyperosmotically treated PC-3 cells after 10 min incubation with various amino acids and analogs using the CellTiter-Glo assay. […] The plate was placed in a CLARIOstar® Plus plate reader from BMG LABTECH (Ortenberg, Germany) at room temperature and was then shaken for 2 minutes at 220 rpm. Luminescence was measured after 0, 5, 10, and 15 minutes. Background luminescence (obtained from adding CellTiter-Glo reagent to HBSS+ containing wells without cells) was subtracted from the sample luminescence and normalized to control wells only exposed to HBSS+ to determine the % viability. […] Statistically significant differences from the control detected by one-way ANOVA are shown (*: p < 0.05).

SNAT2 [2] = biological target: T1, SNAT2; assay: Intracellular amino acids and analogs quantified by OPA derivatization and HPLC-Fl after uptake in PC-3 cells; format: cell-based; details: 0.4 mM compound, 30 min uptake, pH 7.4
Protocol: Derivatization of AAs and analogs using o-phthalaldehyde (OPA) and 2-mercaptoethanol (2-ME) to make fluorescent derivatives was used to measure the intracellular amounts of AAs and analogs following uptake in hyperosmotically treated PC-3 cells. Before starting the experiment, the medium was aspirated, and the cells were preincubated in HBSS + for 15 min at 37 °C and 220 rpm. The cells were then incubated with 500 µL HBSS+ (background) or HBSS + containing AAs or analogs at given concentrations for 30 min at 37 °C and 220 rpm. After aspirating the donor solutions, the cells were washed thrice with 500 µL of ice-cold PBS while keeping the cells on ice. 200 µL of ice-cold 1x-trypsin was added to each well and allowed to distribute for 20–30 min while keeping the cells on ice. The plate was then transferred to an incubating microplate shaker at 37 °C and 220 rpm for about 8 min or until the cells had detached. 300 µL of ice-cold PBS was added to each well to resuspend the cells and transfer them to centrifuge tubes. The cells were centrifuged at 1000 G for 5 min (4 °C), the supernatant was removed, the cells were resuspended in 300 µL ice-cold PBS, and then centrifuged again at 1000 G for 5 min (4 °C). After removing the supernatant, the cell pellet was lysed by adding 100 µL of 80% methanol (20% ultrapure water) and placing the tubes in an ultrasonic bath for 10 min. The tubes were then centrifuged at 15,000 G for 15 min (4 °C) and the resulting supernatant was used for analysis.
The OPA reagent was prepared by spiking with 2 µL 2-ME per mL of OPA regent and was considered stable for use within one day. 10 µL of the cell samples or standards containing a mixture of the AAs and analogs of interest were placed in HPLC vials with 100 µL inserts. […] The autosampler kept the samples at 10 °C and the pretreatment function was used to automatically mix the samples with 10 µL of the OPA reagent and wait 4 min before loading 2 µL onto a YMC-Triart C18 column (75 × 3.0 mm, 1.9 μm, Mikrolab Aarhus, Viby J, Denmark). […] The fluorescence detector was set to excite at 350 nm and detect at 450 nm.
The resulting chromatograms were integrated and the area under the curve (AUC) of the standard samples was used to generate standard curves to determine the concentration of AAs and analogs in the cell samples. […] Amino acid levels detected in the background cell samples were subtracted from the other cell samples.

SNAT2 [3] = biological target: T1, SNAT2; assay: FLIPR membrane potential (FMP) assay in PC-3 cells; format: cell-based; details: hyperosmotically treated PC-3 cells
Protocol: PC-3 cells exposed to hyperosmotic media for 24 h were used to identify SNAT2 substrates in the FMP assay. The media was aspirated, and the cells were preincubated in HBSS + for 10 min at 37 °C and 220 rpm. Then the buffer was aspirated, and cells were then incubated in 50 µL HBSS + containing 0.55 mg ⋅ mL^− 1 (1x) FMP probe (Blue component A from Molecular Devices, San Jose, CA, USA) for 30 min at 37 °C and 220 rpm. […] First, the baseline was measured for 30 s by measuring each well every 3 s. The plate was then removed from the reader and 50 µL of substrate solutions containing 0.55 mg ⋅ mL^− 1 FMP probe was added. These solutions were prepared by mixing equal parts solution containing 2x FMP probe and solutions containing 4x the final concentration of substrate. […] Following this, the baseline of the next column was measured and followed the same procedure as just described.
For the FMP data, the baseline was defined as the mean fluorescence of the first data point before substrate addition. The baseline of each well was then subtracted from the data point to get the ΔF. Plotting ΔF as a function of time and calculating the area under the curve (AUC) after substrate addition was used as a measure of SNAT2 activity.

[4] = Stability in aqueous solution by HPLC-UV; format: physicochemical; details: 1 mM in ultrapure water, room temperature, over 3 days
Text: The resulting chromatograms were integrated and the area under the curve (AUC) of the standard samples was used to generate standard curves to determine the concentration of AAs and analogs in the cell samples. The pooled standard curves and example chromatograms can be seen in the SI (Figs. S2, S3). Amino acid levels detected in the background cell samples were subtracted from the other cell samples. L-Alanine benzyl ester only generated a peak with an equal retention time as L-alanine. It was assessed that the addition of OPA reagent increased the hydrolysis of the ester, thus only creating the L-alanine OPA derivative. […] Thus, the L-alanine peak was used to measure the presence of L-alanine benzyl ester in samples.
Fig. S4 HPLC-UV chromatograms of L-alanine benzyl ester and benzyl alcohol dissolved in ultrapure water. The samples were analyzed using a Waters 2695 HPLC system connected to a Waters 2487 Dual λ Absorbance Detector (Waters Corporation, MA, USA). The peaks were separated using a Sunfire C18 column (4.6 x 150 mm, 3.5 µm, Waters Corporation, MA, USA) at 45 °C and with a 0.7 ml/min flow of 70% mobile phase A (90/10% H2O/MeCN + 0.1% trifluoroacetic acid (TFA)) and 30% mobile phase B (10/90% H2O/MeCN + 0.1% TFA). 10 µL samples were injected and the peaks were detected at 254 nm. […]

IC50 (SNAT2 [1]; hyperosmotically treated PC-3 cells, 5 min uptake of 11.1 nM 3H-glycine, pH 7.4, read-out: IC50): 390 µM
fold change of intracellular accumulation in absence vs presence of 10 mM L-glutamine (SNAT2 [2]): 6.7 fold
AUC of fluorescence response-time curve (SNAT2 [3]; 5 mM compound): 8.1 ± 1.4 10^5 RFU ∙ s
AUC of fluorescence response-time curve (SNAT2 [3]; 10 mM compound): -1.4 ± 3.2 10^5 RFU ∙ s
AUC, % of 10 mM L-alanine (SNAT2 [3]; 10 mM compound): -6.6 ± 14%
stability in aqueous solution [4]: stability was confirmed
SMILES: C[C@H](N)C(=O)OCc1ccccc1 [L-Alanine benzyl ester, L-alanine benzyl ester hydrochloride]
inhibition of 3H-glycine uptake at different pH levels (SNAT2 [1]; pH 6.8, 7.4 and 8.0, 0.4 mM L-alanine benzyl ester or 0.2 mM L-alanine, two-way ANOVA): no significant differences in inhibition at the different pH levels
decrease in cell viability (PC-3 cells): 23%
response in the FMP assay (stimulation of SNAT2 activity) (SNAT2 [3]; result in words): little or no stimulation of SNAT2 activity
